Data published in patent US20250186521A1 (priority 2018, published 2025).

Key:
Format in all cases: in vivo, Broiler chickens
[1] = tested on: mixed E. acervulina, E. maxima, and E. tenella coccidial inoculum; assay: Anticoccidial efficacy versus salinomycin (Example 5): performance, average lesion score, total OPG; conditions: 60 g/t
From the text: (§1) • 1. No Additive, no Cocci. • 2. No Additive, Cocci. • 3. Salinomycin 60 g/t, Cocci. • 4. Product Z 0.551%, Cocci.
(§2) Cages were blocked by location in the battery with block size equal to the groups (8 cages per block). The study began when the birds were placed (day of hatch, i.e., DOT 0) at which time they were allocated to the experimental cages. Only healthy birds were selected (10 birds/cage).
(§3) Upon arrival, chicks were raised in Petersime battery cages. At placement the birds were fed the various feeds. The Petersime batteries were in an insulated building having a concrete floor and a metal overhead structure. The floor space per animal was 0.51 sq. ft. per bird. The feeder space per bird was 10 birds per 24×3.5-inch feeder. Uniform temperature and illumination was provided.
(§4) An unmedicated commercial chicken feed composition compounded with feedstuffs commonly used in the U.S. poultry industry, such as cereals and proteins, was obtained. The diet was an all-vegetable feed with no antibiotics, organic acids, NSP enzymes, or direct fed microbial. This feed in mash form was fed ad libitum from the date of chick arrival until Day 28 of the study. Experimental feeds augmented with the algal biomass were prepared from this commercial poultry feed. The feeds were mixed to assure a uniform distribution of algal biomass into the mash feed.
Day of hatch male broiler chicks of strain Cobb X Cobb were obtained from Cobb-Vantress, Cleveland, GA. Sets of ten chicks were randomly selected, group weighed and placed into cages. No birds were replaced during the study.
(§5) All birds were weighed by cage on DOT 0, 14, 20 and 28. Feed was weighed in on DOT 0 and remaining feed was weighed on DOT 14, 20, and 28.
Coccidial oocysts inoculation procedures were described. On Day 14 of the study all birds except Tl orally received a mixed E. acervulina, E. maxima, and E. tenella coccidial inoculum diluted to a 1 ml volume (p.o.). Inoculum level attempted to produce a moderate challenge.
(§6) On DOT 20, five birds from each cage were selected, sacrificed, weighed, and examined for the degree of presence of coccidia lesions. If less than five birds were present at time of scoring, all remaining birds within the cage were scored. The Johnson and Reid, 1970 method of coccidiosis lesion scoring was used to score the infected region(s) of the intestine. The scoring was based on a 0 to 4 score, with 0 being normal and 4 being the most severe.
(§7) Day 19 (Day 5 post challenge) drop pans from all cages were cleaned. Day 20 (Day 6 pc) mixed feces were collected from each cage. Each sample was examined for the number of oocysts per gram fecal material by fecal floatation.
(§8) Means for cage weight gain, feed consumption, feed conversion rate, lesion scores, opgs, and mortality were calculated.

Eimeria acervulina [2] = assay: Anticoccidial efficacy (Example 5): lesion score and OPG, Eimeria acervulina; conditions: 60 g/t, infected
From the text: as §1, §2
as §4, with “mash feed. […]” for “mash feed.”
(§9) On DOT 20, five birds from each cage were selected, sacrificed, weighed, and examined for the degree of presence of coccidia lesions. If less than five birds were present at time of scoring, all remaining birds within the cage were scored. […]
as §8

Eimeria maxima [3] = assay: Anticoccidial efficacy (Example 5): lesion score and OPG, Eimeria maxima; conditions: 60 g/t, infected
From the text: as §1, §2
as §4, with “mash feed. […]” for “mash feed.”
as §9, §8

Eimeria tenella [4] = assay: Anticoccidial efficacy (Example 5): lesion score and OPG, Eimeria tenella; conditions: 60 g/t, infected
From the text: as §1, §2
as §4, with “mash feed. […]” for “mash feed.”
as §9, §8

[5] = tested on: mixed E. acervulina, E. maxima, and E. tenella coccidial inoculum; assay: Cocci Test (Example 6): performance, average lesion score, total OPG; conditions: 1.0 lb/t
From the text: (§10) • 1. No Additive, no Cocci • 2. No Additive, Cocci • 3. Salinomycin 60 g/t, Cocci • 4.
(§11) Each group was replicated 10 times. Cages were blocked by location in the battery with block size equal to groups (7 cages per block). The study began when the birds were placed (day of hatch, i.e., DOT 0) at which time they were allocated to the experimental cages. Only healthy birds were selected (10 birds/cage).
as §3, with “ft” for “ft.”
as §4
Day of hatch male broiler chicks of strain Cobb 500 were obtained from Cobb-Vantress, Cleveland, GA. Sets of ten chicks were randomly selected, group weighed and placed into cages. Number and disposition of all birds not used for allocation were documented. No birds were replaced during the study.
as §5
On Day 14 of the study all birds except Tl orally received a mixed E. acervulina, E. maxima, and E. tenella coccidial inoculum diluted to a 1 ml volume (p.o.). Inoculum level attempted to produce a moderate challenge.
as §6, §7, §8

Eimeria acervulina [6] = assay: Cocci Test (Example 6): lesion score and OPG, Eimeria acervulina; conditions: 1.0 lb/t, infected
From the text: as §10, §11
as §4, with “mash feed. […]” for “mash feed.”
as §9, §8

Eimeria maxima [7] = assay: Cocci Test (Example 6): lesion score and OPG, Eimeria maxima; conditions: 1.0 lb/t, infected
From the text: as §10, §11
as §4, with “mash feed. […]” for “mash feed.”
as §9, §8

Eimeria tenella [8] = assay: Cocci Test (Example 6): lesion score and OPG, Eimeria tenella; conditions: 1.0 lb/t, infected
From the text: as §10, §11
as §4, with “mash feed. […]” for “mash feed.”
as §9, §8

## CC[C@@H](C(=O)[C@@H](C)[C@@H](O)[C@H](C)[C@@H]1O[C@@H]([C@@H](CC)C(=O)O)CC[C@@H]1C)[C@H]1O[C@]2(C=C[C@@H](O)[C@]3(CC[C@@](C)([C@H]4CC[C@](O)(CC)[C@H](C)O4)O3)O2)[C@H](C)C[C@@H]1C [Salinomycin]
[1]; infected
  FCR Day 0-20: 1.597bc
  FCR Day 0-28: 1.625bc
  FCR Day 14-20: 1.744b
  FCR Day 14-28: 1.766c
  Feed Intake Day 0-20: 5.433a
  Feed Intake Day 0-28: 5.918a
  Feed Intake Day 14-20: 3.049a
  Feed Intake Day 14-28: 3.534a
  Wt. Gain Day 0-20: 0.360b
  Wt. Gain Day 0-28: 0.376b
  Wt. Gain Day 14-20: 0.185b
  Wt. Gain Day 14-28: 0.202b
[1]; infected on Day 14
  FCR Day 14: 1.156a
  Feed Intake Day 14: 2.384a
  Wt. Gain Day 14: 0.218a
[1]; infected, DOT 20, 0 to 4 score
  Lesion Scores Avg.: 1.3c
[1]; infected, Day 20 feces
  OPG Total Avg.: 9722b OPG
Eimeria acervulina [2]; DOT 20, 0 to 4 score
  Lesion Scores Eimeria acervulina: 2.1c
Eimeria acervulina [2]; Day 20 feces
  OPG Eimeria acervulina: 4511c OPG
Eimeria maxima [3]; DOT 20, 0 to 4 score
  Lesion Scores Eimeria maxima: 0.9c
Eimeria maxima [3]; Day 20 feces
  OPG Eimeria maxima: 484b OPG
Eimeria tenella [4]; DOT 20, 0 to 4 score
  Lesion Scores Eimeria tenella: 0.7c
Eimeria tenella [4]; Day 20 feces
  OPG Eimeria tenella: 4727c OPG
[5]; infected
  FCR Day 0-20: 1.876ab
  FCR Day 0-28: 1.832a
  FCR Day 14-20: 1.839b
  FCR Day 14-28: 1.789a
  Feed Intake Day 0-20: 7.064b
  Feed Intake Day 0-28: 9.852bc
  Feed Intake Day 14-20: 3.628b
  Feed Intake Day 14-28: 6.416b
  Wt. Gain Day 0-20: 0.382b
  Wt. Gain Day 0-28: 0.718bc
  Wt. Gain Day 14-20: 0.201b
  Wt. Gain Day 14-28: 0.537b
[5]; infected on Day 14
  FCR Day 14: 1.491a
  Feed Intake Day 14: 3.436ab
  Wt. Gain Day 14: 0.232b
[5]; infected, DOT 20, 0 to 4 score
  Lesion Scores Avg.: 1.5c
[5]; infected, Day 20 feces
  OPG Total Avg.: 35.178c OPG
Eimeria acervulina [6]; DOT 20, 0 to 4 score
  Lesion Scores Eimeria acervulina: 1.7c
Eimeria acervulina [6]; Day 20 feces
  OPG Eimeria acervulina: 30802c OPG
Eimeria maxima [7]; DOT 20, 0 to 4 score
  Lesion Scores Eimeria maxima: 1.7b
Eimeria maxima [7]; Day 20 feces
  OPG Eimeria maxima: 2608a OPG
Eimeria tenella [8]; DOT 20, 0 to 4 score
  Lesion Scores Eimeria tenella: 1.1b
Eimeria tenella [8]; Day 20 feces
  OPG Eimeria tenella: 1768b OPG
